Data as given in publication PMC10246881 (2023).

Key:
[1] = tested on: (poly[dA-dT])2 (DNA, polymer) AT; test: intrinsic fluorescence titration; conditions: 100 mM NaCl; 50 mM Tris-HCl, 0.1 mM EDTA, pH 7.4; 2 μM ridinilazole, polymer titrated
[2] = tested on: (poly[dG-dC])2 (DNA, polymer) GC; test: intrinsic fluorescence titration; conditions: 100 mM NaCl; 50 mM Tris-HCl, 0.1 mM EDTA, pH 7.4; 2 μM ridinilazole, polymer titrated
[3] = tested on: poly(dA)·poly(dT) (DNA, polymer) A/T; test: intrinsic fluorescence titration; conditions: 100 mM NaCl; 50 mM Tris-HCl, 0.1 mM EDTA, pH 7.4; 2 μM ridinilazole, polymer titrated
[4] = tested on: dsOligo 1 (CGCGAATTCGCG) (DNA, duplex) CGCGAATTCGCG; test: intrinsic fluorescence titration, tight-binding linear fit; conditions: 100 mM NaCl; 50 mM Tris-HCl, 0.1 mM EDTA, pH 7.4; oligo titrated into fixed ridinilazole
[5] = tested on: dsOligo 2 (CGCAAATTTGCG) (DNA, duplex) CGCAAATTTGCG; test: as above; conditions: 100 mM NaCl; 50 mM Tris-HCl, 0.1 mM EDTA, pH 7.4; oligo titrated into fixed ridinilazole
[6] = tested on: dsOligo 1 (CGCGAATTCGCG) (DNA, duplex) CGCGAATTCGCG; test: X-ray crystallography (2.2 Å); conditions: minor groove at AATT; mixed 1:1, 4% DMSO; crystals at 14 °C

For `c1cc(-c2nc3cc(-c4ccc5nc(-c6ccncc6)[nH]c5c4)ccc3[nH]2)ccn1`, the binding [1] was “yes”, the binding [2] was “no” and the binding [3] was “yes”. For the same molecule, the Kd [4] was 21.6 nM, the Kd [5] was 21.3 nM and the binding [6] was “yes”.
